Measurements from US20050014782A1, “Novel n-(heterobicycloalkanes)-substituted indoles-or heteroderivatives thereof” (Boehringer Ingelheim International GmbH, priority 2003, published 2005).
Where a name gives a salt, the structure may show the parent alone.

Tests used:
[1] = target: T1, human chemokine receptor CCR-3 (Homo sapiens, UniProt P51677); experiment: CCR-3 receptor binding assay, 125Jodine-eotaxin-1 Scintillation Proximity Assay (SPA)
T1 construct: expressed in transfected cells; host or cells: K562 cells (clone hCCR-3-C1), membranes
T1 sequence (P51677 1-355): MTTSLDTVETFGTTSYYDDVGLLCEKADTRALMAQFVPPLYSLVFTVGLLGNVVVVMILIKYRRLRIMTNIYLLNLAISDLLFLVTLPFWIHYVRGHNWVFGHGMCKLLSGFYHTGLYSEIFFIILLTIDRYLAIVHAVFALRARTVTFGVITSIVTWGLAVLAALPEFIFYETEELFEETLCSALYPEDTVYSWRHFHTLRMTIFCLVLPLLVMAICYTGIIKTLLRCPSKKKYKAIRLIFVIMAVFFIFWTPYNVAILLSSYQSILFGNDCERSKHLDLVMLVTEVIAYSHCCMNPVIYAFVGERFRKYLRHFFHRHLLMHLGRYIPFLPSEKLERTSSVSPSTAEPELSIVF
Method: The CCR-3 receptor binding test is based on a K562 cell line (leukemia myelogenic blast cells) transfected with the human chemokine receptor CCR-3 (hCCR-3-C1). The cell membranes were prepared by disrupting the hCCR-3 transfected K562 cells by […] and centrifugation at 40000 g, 4° C. for 1 h. The membranes were re-suspended in the SPA incubation buffer without bovine serum albumin for storage in aliquots at −80° C.
The CCR-3 receptor binding assay with the radioligand ^125Jodine-eotaxin-1 was performed in a Scintillation Proximity Assay (SPA) design. Cell membranes of hCCR-3 C1 cells were diluted in suitable concentrations (0.5-5 ug protein/well) in 96 well microtiter plates (1450-401, Wallac).
The test incubation mixture comprising 60 μl of the membrane suspension, 80 μl of the Wheat Germ Agglutinin coated PVT beads (organic scintillator, Amersham Pharmacia biotech) in a concentration of 0.4 mg and 40 μl of radiolabelled ^125J rhEotaxin (Amersham, IM290) were incubated with 20 μl of the test compound (dissolved in DMSO dilutions) for 2 hours. The SPA incubation buffer contained 25 mM HEPES, 25 mM MgCl2 6×H2O, 1 mM CaCl2 2×H2O and 0.1% bovine serum albumin. Included were controls for specific binding (no displacer added) and non-specific binding by adding unlabelled rhEotaxin (R&D Systems) or a test compound. Bound radioactivity was determined by scintillation counter (Micro Beta “Trilux”, Wallac). Determination of affinity of test compounds (dissociation constant Ki) was calculated by iterative fitting of experimental data using the law of mass action based program “easy sys” (Schittkowski, Num Math 68, 129-142 (1994)).

Question: Which melting point does the source give for CCc1nc2cc(F)ccc2n1C1CC2CCC(C1)N2CCCSc1ccc(F)cc1 (centres unmarked) (as salt: HCl) [Example 10, 2-Ethyl-5-fluoro-1-{8-[3-(4-fluoro-phenylsulfanyl)-propyl]-8-aza-bicyclo[3.2.1]oct-3-yl}-1H-benzoimidazole] here?
Answer: The melting point was 127 to 128 °C.

Question: For Cc1nc2cc(F)ccc2n1C1CC2CCC(C1)N2CCCSc1ccc(F)cc1 (centres unmarked) (as salt: HCl) [Example 11, 5-Fluoro-1-{8-[3-(4-fluoro-phenylsulfanyl)-propyl]-8-aza-bicyclo[3.2.1]oct-3-yl}-2-methyl-1H-benzoimidazole], which melting point is on record?
Answer: The melting point was 240 to 241 °C.

Question: With Fc1ccc(SCCCN2C3CCC2CC(n2c(C4CC4)nc4cc(F)ccc42)C3)cc1 (centres unmarked) [Example 9, 2-Cyclopropyl-5-fluoro-1-{8-[3-(4-fluoro-phenylsulfanyl)-propyl]-8-aza-bicyclo[3.2.1]oct-3-yl}1H-benzoimidazole] as the molecule, how does the Ki [1] read?
Answer: Its Ki is 10 nM.

Question: For CCc1nc2cc(F)ccc2n1C1CC2CCC(C1)N2CCCSc1ccc(F)cc1 (centres unmarked) [Example 10, 2-Ethyl-5-fluoro-1-{8-[3-(4-fluoro-phenylsulfanyl)-propyl]-8-aza-bicyclo[3.2.1]oct-3-yl}-1H-benzoimidazole], which Ki [1] is on record?
Answer: Its Ki is 6.5 nM.

Question: With Cc1nc2cc(F)ccc2n1C1CC2CCC(C1)N2CCCSc1ccc(F)cc1 (centres unmarked) [Example 11, 5-Fluoro-1-{8-[3-(4-fluoro-phenylsulfanyl)-propyl]-8-aza-bicyclo[3.2.1]oct-3-yl}-2-methyl-1H-benzoimidazole] as the molecule, how does the Ki [1] read?
Answer: Its Ki is 14 nM.
